Test results reported in US12310975B2, “Modulators of BCL6 proteolysis and associated methods of use” (Arvinas Operations, Inc., priority 2019, dated 2025).

Experiments:
BCL6 [1] = biological target: T1, BCL6 (Homo sapiens (Human), UniProt P41182); assay: BCL6 TR-FRET assay (BCL6-Avitag-Biotin / BCoR-Cy5 peptide); assay type: binding
Method in brief: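 After 30 min room-temperature preincubation of compound titrations with 2 nM biotinylated BCL6-Avitag, 100 nM Cy5-labelled BCoR peptide plus 2 nM Eu-streptavidin were added and TR-FRET read 2 h later. HEPES pH 7.5/125 mM NaCl buffer with Triton X, glutathione (or DTT) and BSA.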

BCL6 [2] = biological target: T1, BCL6; assay: Immunofluorescence high content imaging of BCL6 degradation in T47D cells; assay type: cell-based; conditions: for Dmax: T47D; for DC50: class symbols A-D, read-out: EC50 (nM)*
Method in brief: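 T47D, 3 d compound exposure, 11-pt 3-fold series, top 0.1 or 1 μM final. Fix 4% PFA, Triton permeabilize, anti-BCL6 primary overnight 4 °C, Alexa-488 secondary. High-content imaging 10×, 4 fields/well, top-hat smoothing.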

[3] = class symbols A-D, read-out: IC50 (nM)***

Row | IC50 (BCL6 [1]; read-out: IC50) [nM] | Dmax (BCL6 [2]) [%] | IC50 (BCL6 [1]; [3]) [nM] | DC50 (BCL6 [2]) [nM] | SMILES | further results
1 | < 10 | ≥ 70 | – | – | CNC(=O)COc1cc2cc(Nc3nc(N4CCN(CC5CC6(CCN(c7cccc8c7C(=O)N(C7CCC(=O)NC7=O)C8=O)CC6)C5)CC4)ncc3Cl)ccc2n(C(C)C)c1=O (stereo not shown) [compound 517, 2-{[6-({5-chloro-2-[4-({7-[2-(2,6-dioxopiperidin-3-yl)-1,3-dioxo-2,3-dihydro-1H-isoindol-4-yl]-7-azaspiro[3.5]nonan-2-yl}methyl)piperazin-1-yl]pyrimidin-4-yl}amino)-2-oxo-1-(propan-2-yl)-1,2-dihydroquinolin-3-yl]oxy}-N-methylacetamide] | –
2 | < 10 | 50 to 70 | – | – | CNC(=O)COc1cc2cc(Nc3nc(N4CCN(CC5CN(C6CCN(c7cccc8c7C(=O)N(C7CCC(=O)NC7=O)C8=O)CC6)C5)CC4)ncc3Cl)ccc2n(C(C)C)c1=O (stereo not shown) [compound 524, 2-({6-[(5-chloro-2-{4-[(1-{1-[2-(2,6-dioxopiperidin-3-yl)-1,3-dioxo-2,3-dihydro-1H-isoindol-4-yl]piperidin-4-yl}azetidin-3-yl)methyl]piperazin-1-yl}pyrimidin-4-yl)amino]-2-oxo-1-(propan-2-yl)-1,2-dihydroquinolin-3-yl}oxy)-N-methylacetamide] | –
3 | < 10 | ≥ 70 | – | – | CNC(=O)COc1cc2cc(Nc3nc(N4CCC5(CCN(CC6CCN(c7ccc8c(c7)C(=O)N(C7CCC(=O)NC7=O)C8=O)CC6)C5)CC4)ncc3Cl)ccc2n(C(C)C)c1=O (stereo not shown) [compound 507, 2-{[6-({5-chloro-2-[2-({1-[2-(2,6-dioxopiperidin-3-yl)-1,3-dioxo-2,3-dihydro-1H-isoindol-5-yl]piperidin-4-yl}methyl)-2,8-diazaspiro[4.5]decan-8-yl]pyrimidin-4-yl}amino)-2-oxo-1-(propan-2-yl)-1,2-dihydroquinolin-3-yl]oxy}-N-methylacetamide] | –
4 | < 10 | ≥ 70 | – | – | CNC(=O)COc1cc2cc(Nc3nc(N4CCN(CC5CCN(c6cccc7c6C(=O)N(C6CCC(=O)NC6=O)C7=O)CC5)CC4)ncc3Cl)ccc2n(CCOC)c1=O (stereo not shown) [compound 454, 2-{[6-({5-chloro-2-[4-({1-[2-(2,6-dioxopiperidin-3-yl)-1,3-dioxo-2,3-dihydro-1H-isoindol-4-yl]piperidin-4-yl}methyl)piperazin-1-yl]pyrimidin-4-yl}amino)-1-(2-methoxyethyl)-2-oxo-1,2-dihydroquinolin-3-yl]oxy}-N-methylacetamide] | –
5 | < 10 | 50 to 70 | – | – | CNC(=O)COc1cc2cc(Nc3nc(N4CCC5(CCN(CC6CCN(c7ccc8c(c7)C(=O)N(C7CCC(=O)NC7=O)C8=O)CC6)CC5)C4)ncc3Cl)ccc2n(C(C)C)c1=O (stereo not shown) [compound 490, 2-{[6-({5-chloro-2-[8-({1-[2-(2,6-dioxopiperidin-3-yl)-1,3-dioxo-2,3-dihydro-1H-isoindol-5-yl]piperidin-4-yl}methyl)-2,8-diazaspiro[4.5]decan-2-yl]pyrimidin-4-yl}amino)-2-oxo-1-(propan-2-yl)-1,2-dihydroquinolin-3-yl]oxy}-N-methylacetamide] | –

The remaining lines, values behind:

Row | SMILES | IC50 (BCL6 [1]; read-out: IC50) [nM] | Dmax (BCL6 [2]) [%] | IC50 (BCL6 [1]; [3]) [nM] | DC50 (BCL6 [2]) [nM] | further results
6 | Cn1c(=O)c(Cn2cccn2)cc2cc(Nc3nc(N4CCC(CN5CCN(c6ccc7c(c6)C(=O)N(C6CCC(=O)NC6=O)C7=O)CC5)CC4)ncc3Cl)ccc21 (stereo not shown) [compound 225, 5-(4-((1-(4-((3-((1H-pyrazol-1-yl)methyl)-1-methyl-2-oxo-1,2-dihydroquinolin-6-yl)amino)-5-chloropyrimidin-2-yl)piperidin-4-yl)methyl)piperazin-1-yl)-2-(2,6-dioxopiperidin-3-yl)isoindoline-1,3-dione] | – | – | – | – | EC50 (BCL6 [1]): > 100 nM; IC50 (BCL6 [2]): ≥ 100 nM
7 | CNC(=O)COc1cc2cc(Nc3nc(N4CCC5(CC4)CN(CC4CCN(c6ccc(C(=O)NC7CCC(=O)NC7=O)c(OC)c6)CC4)C5)ncc3Cl)ccc2n(C(C)C)c1=O (stereo not shown) [compound 447, 4-[4-({7-[5-chloro-4-({3-[(methylcarbamoyl)methoxy]-2-oxo-1-(propan-2-yl)-1,2-dihydroquinolin-6-yl}amino)pyrimidin-2-yl]-2,7-diazaspiro[3.5]nonan-2-yl}methyl)piperidin-1-yl]-N-(2,6-dioxopiperidin-3-yl)-2-methoxybenzamide] | 10 to 50 | ≥ 70 | – | – | –
8 | Cn1c(=O)cc(NC(C)(C)c2ncccn2)c2cc(Nc3nc(N4CCC(CN5CCN(c6ccc7c(c6)C(=O)N(C6CCC(=O)NC6=O)C7=O)CC5)CC4)ncc3Cl)ccc21 (stereo not shown) [compound 156, 5-(4-((1-(5-chloro-4-((1-methyl-2-oxo-4-((2-(pyrimidin-2-yl)propan-2-yl)amino)-1,2-dihydroquinolin-6-yl)amino)pyrimidin-2-yl)piperidin-4-yl)methyl)piperazin-1-yl)-2-(2,6-dioxopiperidin-3-yl)isoindoline-1,3-dione] | – | – | ≥ 100 | > 100 | Dmax (BCL6 [2]; maximum, class symbols A-C): < 50%
9 | CNC(=O)COc1cc2cc(Nc3nc(N4CCC(C(C)(C)N5CCN(c6ccc7c(c6)C(=O)N(C6CCC(=O)NC6=O)C7=O)CC5)CC4)ncc3Cl)ccc2n(C)c1=O (stereo not shown) [compound 200, 2-((6-((5-chloro-2-(4-(2-(4-(2-(2,6-dioxopiperidin-3-yl)-1,3-dioxoisoindolin-5-yl)piperazin-1-yl)propan-2-yl)piperidin-1-yl)pyrimidin-4-yl)amino)-1-methyl-2-oxo-1,2-dihydroquinolin-3-yl)oxy)-N-methylacetamide] | – | 50 to 70 | – | – | EC50 (BCL6 [1]): > 100 nM; IC50 (BCL6 [2]): 10 to 50 nM
10 | Cn1c(=O)n(CCC(C)(C)O)c2cc(Nc3nc(N4CCC(CN5CCN(c6ccc7c(c6)C(=O)N(C6CCC(=O)NC6=O)C7=O)CC5)CC4)ncc3Cl)ccc21 (stereo not shown) [compound 149, 5-(4-((1-(5-chloro-4-((3-(3-hydroxy-3-methylbutyl)-1-methyl-2-oxo-2,3-dihydro-1H-benzo[d]imidazol-5-yl)amino)pyrimidin-2-yl)piperidin-4-yl)methyl)piperazin-1-yl)-2-(2,6-dioxopiperidin-3-yl)isoindoline-1,3-dione] | – | – | ≥ 100 | > 100 | –
11 | CC(=O)COc1cc2cc(Nc3nc(N4CCC(C(=O)N5CCN(c6ccc7c(c6)C(=O)N(C6CCC(=O)NC6=O)C7=O)CC5)CC4)ncc3Cl)ccc2n(C)c1=O (stereo not shown) [compound 153, 5-(4-(1-(5-chloro-4-((1-methyl-2-oxo-3-(2-oxopropoxy)-1,2-dihydroquinolin-6-yl)amino)pyrimidin-2-yl)piperidine-4-carbonyl)piperazin-1-yl)-2-(2,6-dioxopiperidin-3-yl)isoindoline-1,3-dione] | – | – | 50 to 100 | < 10 | Dmax (BCL6 [2]; maximum, class symbols A-C): ≥ 70%
12 | CC(=O)COc1cc2cc(Nc3nc(N4CCC(N(C)C5CCN(c6ccc7c(c6)C(=O)N(C6CCC(=O)NC6=O)C7=O)CC5)CC4)ncc3Cl)ccc2n(C)c1=O (stereo not shown) [compound 169, 5-(4-((1-(5-chloro-4-((1-methyl-2-oxo-3-(2-oxopropoxy)-1,2-dihydroquinolin-6-yl)amino)pyrimidin-2-yl)piperidin-4-yl)(methyl)amino)piperidin-1-yl)-2-(2,6-dioxopiperidin-3-yl)isoindoline-1,3-dione] | – | – | 10 to 50 | < 10 | Dmax (BCL6 [2]; maximum, class symbols A-C): 50 to 70%
13 | CNC(=O)COc1cc2cc(Nc3nc(N4CCC(CN5CC6CC5CN6c5ccc6c(c5)C(=O)N(C5CCC(=O)NC5=O)C6=O)CC4)ncc3Cl)ccc2n(C)c1=O (stereo not shown) [compound 204, 2-((6-((5-chloro-2-(4-((5-(2-(2,6-dioxopiperidin-3-yl)-1,3-dioxoisoindolin-5-yl)-2,5-diazabicyclo [2.2.1]heptan-2-yl)methyl)piperidin-1-yl)pyrimidin-4-yl)amino)-1-methyl-2-oxo-1,2-dihydroquinolin-3-yl)oxy)-N-methylacetamide] | – | < 50 | – | – | EC50 (BCL6 [1]): 10 to 50 nM; IC50 (BCL6 [2]): < 10 nM
